Patent publication US8486930B2, “Salts” (Novartis AG, priority 2008, dated 2013)
Counter-ions that a name gives are not always drawn.

Key:
Type in all cases: physicochemical
[1] = Temperature stability, solid state, 1 week 80° C./75% relative humidity; conditions: for Decomposition products (%) / Discoloration / Change in XRPD: 1 week 80° C./75% relative humidity; for Change in XRPD: Bulk (XRPD)
Experimental: (§1) Crystalline forms A of the hydrochloride and tartrate salts of Compound I were prepared according to the methodology described in Examples 1 and 4. Stability against temperature and light were then measured as described below.
(§2) Temperature stability was tested by measuring decomposition and colour change caused by placing the samples in an airtight container for 1 week at 80° C. (in bulk form and as a 1% component in two mixtures) and in an identical container for 1 week at 80° C. and at a relative humidity of 75%. Where a change in XRPD was observed, the temperature of the phase transition was measured using differential scanning […] (DSC).

[2] = Hygroscopy by exposure to an atmosphere of 95% RH
Experimental: Crystalline forms A of the hydrochloride and tartrate salts of Compound I were prepared according to the methodology described in Examples 1 and 4.
The samples were tested for hygroscopy by exposure to an atmosphere of 95% RH.

[3] = Temperature stability, solid state, 1 week 80° C., tight container; conditions: for resistance to decomposition at elevated temperatures: summary of Table 5
Experimental: as §1, §2

[4] = Light stability, Xenon light approx. 1200 kLuxh; conditions: for Decomposition products (%): Bulk (HPLC); for Change in XRPD: Bulk (XRPD)
Experimental: as §1
Light stability was tested by measuring decomposition and colour change following exposure to the sample to 1200 kiloLuxhours from a Xenon light.

[5] = 1% in mixture of Lactose 200 mesh (78.5%), corn starch (20%), aerosil 200 (0.5%), magnesium stearate (1%)
[6] = 1% in mixture of Mannitol 60 (50%), avicel PH 101 (43%), crospovidone (5%), aerosil (1%), magnesium stearate (1%)
[7] = 1 week 80° C., tight container, 1% in mixture of Lactose 200 mesh (78.5%), corn starch (20%), aerosil 200 (0.5%), magnesium stearate (1%)
[8] = 1 week 80° C., tight container, 1% in mixture of Mannitol 60 (50%), avicel PH 101 (43%), crospovidone (5%), aerosil (1%), magnesium stearate (1%)
[9] = Solid state, 1 week 80° C., tight container, Bulk (HPLC)
[10] = Solid state, 1 week 80° C., tight container, Bulk (XRPD, DSC)

Row | Decomposition products (%) [1, 5] [%] | Discoloration [1, 5] | Decomposition products (%) [1, 6] [%] | Discoloration [1, 6] | Discoloration ([1]; Solid state, Bulk) | Decomposition products (%) ([1]; Solid state, Bulk (HPLC)) | Change in XRPD ([1]; Solid state) | hygroscopy [2] | moisture uptake [2] [%] | Decomposition products (%) [3, 7] [%] | Decomposition products (%) [3, 8] [%] | Decomposition products (%) [3, 9] [%] | Change in XRPD [3, 10] | Decomposition products (%) ([3]; Unstressed (1 week)) | resistance to decomposition at elevated temperatures [3] | Decomposition products (%) [4] [%] | Change in XRPD [4] | SMILES | further results
1 | 95.2 | Strong | 95.8 | Strong | Strong | 91.5 | Melted glass | low hygroscopy | 0.61 | 94.8 | 92.7 | 11.5 | No change | 1.1 | good resistance to decomposition | 1.1 | No change | CCc1cc(/C(C)=N/OCc2ccc(C3CCCCC3)c(C(F)(F)F)c2)ccc1CN1CC(C(=O)O)C1 [Form A of hydrochloride salt, 1-(4-{1-[(E)-4-Cyclohexyl-3-trifluoromethyl-benzyloxyimino]-ethyl}-2-ethyl-benzyl)-azetidine-3-carboxylic acid] | Discoloration [3, 7]: Strong; Discoloration [3, 8]: Strong
2 | 70.9 | Strong | 93.2 | Medium | Strong | 18.0 | Melted glass | slightly hygroscopic | 2.49 | 23.8 | 37.0 | 8.8 | Changed | 0.8 | good resistance to decomposition | 0.8 | No change | CCc1cc(/C(C)=N/OCc2ccc(C3CCCCC3)c(C(F)(F)F)c2)ccc1CN1CC(C(=O)O)C1 [Form A of tartrate salt, 1-(4-{1-[(E)-4-Cyclohexyl-3-trifluoromethyl-benzyloxyimino]-ethyl}-2-ethyl-benzyl)-azetidine-3-carboxylic acid] | resistance to decomposition under conditions of high humidity and when mixed with representative pharmaceutical compositions ([1]; summary of Table 5, compared with the hydrochloride form): superior resistance to decomposition; temperature of the phase transition (DSC) ([3]; Solid state, 1 week 80° C., tight container, Bulk (XRPD, DSC), measured where XRPD changed): 136.3 °C
